Data reported in patent US8585782B2, “Use of specific bis(biphenyl)triazine derivatives and mixtures thereof as UV absorbers” (BASF SE, priority 2010, dated 2013).

Assay: Measurement of solubility in capric/caprylic triglyceride
Format: physicochemical
Conditions: commercial triazine derivatives, state-of-the-art comparison

For `CCCCC(CC)COc1ccc(-c2nc(-c3ccc(OC)cc3)nc(-c3ccc(OCC(CC)CCCC)cc3O)n2)c(O)c1` (centres unmarked) [Tinosorb S], the “solubility in the cosmetic oil capric/caprylic triglyceride” value was 6%.
With `CCCCC(CC)COC(=O)c1ccc(Nc2nc(Nc3ccc(C(=O)OCC(CC)CCCC)cc3)nc(Nc3ccc(C(=O)OCC(CC)CCCC)cc3)n2)cc1` (centres unmarked) [EHT, Ethylhexyl Triazone] the “solubility in the cosmetic oil capric/caprylic triglyceride” value was 3%.
